Measured values: patent publication US8293208B2, “Fluorinated fructose derivatives for PET imaging” (The Governors of the University of Alberta, priority 2009, dated 2012)
Blank lines part the entries; values can stand above or below the molecule they belong to.

Experiments:
[1] = system: MCF-7 cells; assay: Inhibition of [14C]-D-fructose transport (hexose flux) in MCF-7 cells; assay type: cell-based, human
Method: (§1) Both MCF-7 and MDA-MB-231 cells (Gifts from Dr. David Murray, Cross Cancer Institute, Edmonton, Canada) were grown in a 37° C., 5% CO2 incubator, in Gibco® DMEM-F12 supplemented with 15 mM HEPES, L-glutamine, 10% fetal bovine serum and 1% penicillin/streptomycin with media renewal every 2 to 3 days. For cell flux studies, cells were grown to confluence in 12-well plates with media renewal every two days. Two hours before performing the flux experiment, the media was removed, and the cells washed twice with phosphate buffered saline solution (PBS). Glucose-free Krebs-Ringer solution was added to the wells (120 mM NaCl, 25 mM NaHCO3, 4 mM KCl, 1.2 mM KH2PO4, 2.5 mM MgSO4, 70 uM CaCl2, pH 7.4) to deprive the cells of nutrients and to set up a zero-trans experiment. After two hours, cells were removed from the incubator, and the respective experiments were performed. Radioactive “Hot” flux solutions were made up using the Krebs-Ringer solution previously mentioned and radiolabelled [^14C]-D-glucose (Amersham), [^14C]-D-fructose (Moravek Biochemicals), or [^14C]6FDF (proprietary) at a specific activity of approximately 1 μCi/ml. For determining background levels of radioactivity, a sodium reduced Krebs solution was made (70 mM NaCl, 25 mM NaHCO3, 4 mM KCl, 1.2 mM KH2PO4, 2.5 mM MgSO4, 70 μM CaCl2, pH 7.4) with the addition of either 100 mM D-glucose or 100 mM D-fructose to outcompete the binding sites of the specific GLUT transporters under examination. […] Three 150 μl samples from each well were placed into scintillation counter vials, and 4 ml of ScintiSafe™ liquid scintillation fluid (Fisher) was added. The vials were then placed in a Beckman™ LS 6500 multi-purpose liquid scintillation counter to be quantified. All counts were then normalized to standards and corrected for background accumulation of isotope.
(§2) All uptake values were corrected for their respective adhering extracellular substrate, and Ki values were determined using non-linear regression in GraphPad Prism™ 5 (GraphPad Software, Inc., La Jolla, Calif.). ANOVA analysis was also performed in GraphPad Prism™ 5.

[2] = system: MDA-MB-231 cells; assay: Inhibition of [14C]-D-fructose transport (hexose flux) in MDA-MB-231 cells; assay type: cell-based, human
Method: as §1, §2

[3] = system: MCF-7 cells; assay: [14C]-6-deoxy-6-fluoro-D-fructose uptake in MCF-7 cells; assay type: cell-based, human; details: for uptake time course: 90 minute incubation, MCF-7, corrected for non-mediated hexose uptake
Method: as §1, §2

[4] = system: MDA-MB-231 cells; assay: [14C]-6-deoxy-6-fluoro-D-fructose uptake in MDA-MB-231 cells; assay type: cell-based, human; details: 90 minute incubation, MDA-MB-231, corrected for non-mediated hexose uptake
Method: Both MCF-7 and MDA-MB-231 cells (Gifts from Dr. David Murray, Cross Cancer Institute, Edmonton, Canada) were grown in a 37° C., 5% CO2 incubator, in Gibco® DMEM-F12 supplemented with 15 mM HEPES, L-glutamine, 10% fetal bovine serum and 1% penicillin/streptomycin with media renewal every 2 to 3 days. For cell flux studies, cells were grown to confluence in 12-well plates with media renewal every two days. Two hours before performing the flux experiment, the media was removed, and the cells washed twice with phosphate buffered saline solution (PBS). […] For determining background levels of radioactivity, a sodium reduced Krebs solution was made (70 mM NaCl, 25 mM NaHCO3, 4 mM KCl, 1.2 mM KH2PO4, 2.5 mM MgSO4, 70 μM CaCl2, pH 7.4) with the addition of either 100 mM D-glucose or 100 mM D-fructose to outcompete the binding sites of the specific GLUT transporters under examination. […] The vials were then placed in a Beckman™ LS 6500 multi-purpose liquid scintillation counter to be quantified. […]
(§3) All uptake values were corrected for their respective adhering extracellular substrate, and Ki values were determined using non-linear regression in GraphPad Prism™ 5 (GraphPad Software, Inc., La Jolla, Calif.). […]

[5] = system: MCF-7 cells; assay: Inhibition of [14C]-D-glucose transport (hexose flux) in MCF-7 cells; assay type: cell-based, human; details: for Ki: [14C]-D-glucose
Method: (§4) Both MCF-7 and MDA-MB-231 cells (Gifts from Dr. David Murray, Cross Cancer Institute, Edmonton, Canada) were grown in a 37° C., 5% CO2 incubator, in Gibco® DMEM-F12 supplemented with 15 mM HEPES, L-glutamine, 10% fetal bovine serum and 1% penicillin/streptomycin with media renewal every 2 to 3 days. For cell flux studies, cells were grown to confluence in 12-well plates with media renewal every two days. Two hours before performing the flux experiment, the media was removed, and the cells washed twice with phosphate buffered saline solution (PBS). Glucose-free Krebs-Ringer solution was added to the wells (120 mM NaCl, 25 mM NaHCO3, 4 mM KCl, 1.2 mM KH2PO4, 2.5 mM MgSO4, 70 uM CaCl2, pH 7.4) to deprive the cells of nutrients and to set up a zero-trans experiment. After two hours, cells were removed from the incubator, and the respective experiments were performed. Radioactive “Hot” flux solutions were made up using the Krebs-Ringer solution previously mentioned and radiolabelled [^14C]-D-glucose (Amersham), [^14C]-D-fructose (Moravek Biochemicals), or [^14C]6FDF (proprietary) at a specific activity of approximately 1 μCi/ml. For determining background levels of radioactivity, a sodium reduced Krebs solution was made (70 mM NaCl, 25 mM NaHCO3, 4 mM KCl, 1.2 mM KH2PO4, 2.5 mM MgSO4, 70 μM CaCl2, pH 7.4) with the addition of either 100 mM D-glucose or 100 mM D-fructose to outcompete the binding sites of the specific GLUT transporters under examination. After applying the test flux solution, incubations lasted for 25 minutes, where the cells were then rinsed twice with ice-cold Krebs-Ringer to stop the transport, and then lysed using 500 μl 5% trichloracetic acid and left to sit on a shaker bed overnight. […] The vials were then placed in a Beckman™ LS 6500 multi-purpose liquid scintillation counter to be quantified. […]
as §3

[6] = system: MDA-MB-231 cells; assay: Inhibition of [14C]-D-glucose transport (hexose flux) in MDA-MB-231 cells; assay type: cell-based, human; details: for Ki: [14C]-D-glucose
Method: as §4, §3

[7] = Storage stability; assay type: physicochemical; details: prolonged storage
[8] = listed as [^14C]-labelled 6-deoxy-6-fluoro-D-fructose
[9] = increasing concentrations, MCF-7
[10] = increasing concentrations, MDA-MB-231

SMILES: C=C1[C@@H](C)[C@H]2[C@H](Cc3ccccc3)NC(=O)[C@]23OC(=O)/C=C/[C@H](O)CCC[C@@H](C)C/C=C/[C@H]3[C@@H]1O [CB, cytochalasin B, reference compound]
effect on fructose transport ([1]; 100 μM CB, [14C]-D-fructose, 60 minutes, MCF-7): no significant transport difference | share of total fructose flux inhibited (GLUT2-mediated) ([1]; 100 μM CB, [14C]-D-fructose, 90 minute flux, MCF-7): about 12% | share of total fructose flux inhibited (GLUT2-mediated) ([2]; 100 μM CB, [14C]-D-fructose, 90 minute flux, MDA-MB-231): approximately 30% | effect on 6-deoxy-6-fluoro-D-fructose transport ([3]; 100 μM CB, [14C]-6-deoxy-6-fluoro-D-fructose, 60 minutes, MCF-7): no significant transport difference

SMILES: O=C(CO)[C@@H](O)[C@H](O)[C@H](O)CF [[^14C]-6-deoxy-6-fluoro-D-fructose]
uptake time course [3]: Near linear uptake | uptake time course [3, 8]: Near linear uptake over time | increase in uptake compared to [14C]-D-fructose ([3]; MCF-7, one hour incubation, 2-way ANOVA p=0.0028): almost two-fold increase | uptake time course [4]: Near linear uptake | uptake time course [4, 8]: Near linear uptake over time

stability during storage [7]: not stable during prolonged storage
SMILES: OCC1(O)O[C@H](CF)[C@@H](O)[C@@H]1O (stereo partly drawn) [6-deoxy-6-fluoro-D-fructose]
Ki ([5]; 25 minute incubation, MCF-7, n=3): ~916 µM | Ki ([5]; MCF-7 (FIG. 7A)): ~916 µM | inhibition of [14C]-D-glucose transport, in words [5, 9]: dose dependent inhibition | Ki ([6]; 25 minute incubation, MDA-MB-231, n=3): 6210 ± 2860 µM | Ki ([6]; MDA-MB-231 (FIG. 7B)): 6210 ± 2860 µM | inhibition of [14C]-D-glucose transport, in words [6, 10]: dose dependent inhibition | Ki ([1]; [14C]-D-fructose, 25 minute incubation, MCF-7, n=3): 154 ± 54 µM | inhibition of [14C]-D-fructose transport, in words [1, 9]: dose dependent inhibition | Ki ([2]; [14C]-D-fructose, 25 minute incubation, MDA-MB-231, n=3): 330 ± 153 µM | inhibition of [14C]-D-fructose transport, in words [2, 10]: dose dependent inhibition
